The nature of the series: Preservation stability of the crystal at 40° C/75% RH for 6 months (water content by Karl-Fischer, content by HPLC). Type of series: physicochemical. Conditions: for content (%) (converted into dehydrated form): HPLC method; for water content (%): Karl-Fischer method. The protocol:
A crystal of 3-[5-(4-carbamimidoyl-2-fluorophenoxy)carbonyl-2-thienyl]-2,2-dimethylpropanoic acid hydrochloride obtained by the method of Example 3 was preserved for 6 months under 40° C/75% RH conditions. […] Therefore, the crystalline form is useful as a crystalline form of a drug substance for pharmaceutical products.
The water content was measured by the Karl-Fischer method, and the content was measured by the HPLC method using a column charged with octadecylsilyl silica gel for liquid chromatography.

SMILES strings stand for the structures. Structures can show the parent of a compound that is named as a salt.

For `CC(C)(Cc1ccc(C(=O)Oc2ccc(C(=N)N)cc2F)s1)C(=O)O` [Example 3, 3-[5-(4-carbamimidoyl-2-fluorophenoxy)carbonyl-2-thienyl]-2,2-dimethylpropanoic acid hydrochloride], where the note is “6 months at 40° C/75% RH”, the “content (%) (converted into dehydrated form)” value is listed as 99.5% and the “water content (%)” value is recorded as 0.1%. Further, the “preservation stability of the crystal” value (40° C./75% RH for 6 months) is on record as “stable”. Besides, where the note is “start”, the “content (%) (converted into dehydrated form)” value is given as 99.5% and the “water content (%)” value is listed as 0.1%.

The values above are taken from US20180230122A1, “PRODUCTION METHOD FOR HETEROARYLCARBOXYLIC ACID ESTER DERIVATIVE, PRODUCTION INTERMEDIATE THEREOF, AND CRYSTAL” (EA PHARMA CO., LTD., priority 2014, published 2018).
